Experimental data taken from patent US4160845A, “Fungicidal N-(haloaliphaticthio)halovinylsulfonamides” (Chevron Research Company, priority 1976, dated 1979).

Legend:
Assay type in all cases: cell-based
Conditions in all cases: paper strips on potato dextrose agar, 25° C., 24 hours
[1] = system: Rhizoctonia solani; assay: Mycelial inhibition test, Rhizoctonia solani
[2] = system: Fusarium moniloforma; assay: Mycelial inhibition test, Fusarium moniloforma
[3] = system: Aspergillus niger; assay: Mycelial inhibition test, Aspergillus niger

SMILES	Mycelia Inhibition, micrograms/cm for 99% control, R [1]	Mycelia Inhibition, micrograms/cm for 99% control, F [2]	Mycelia Inhibition, micrograms/cm for 99% control, A [3]
CN(SC(Cl)(Cl)Cl)S(=O)(=O)C(Cl)=C(Cl)Cl [Compound 1, N-methyl-N-(trichloromethylthio)trichlorovinylsulfonamide]	0.18 micrograms/cm	1.7 micrograms/cm	0.42 micrograms/cm
CC(C)N(SC(Cl)(Cl)Cl)S(=O)(=O)C(Cl)=C(Cl)Cl [Compound 4]	0.19 micrograms/cm	> 1.7 micrograms/cm	0.68 micrograms/cm
O=S(=O)(C(Cl)=C(Cl)Cl)N(SC(Cl)(Cl)Cl)C1CCCCC1 [Compound 5]	1.1 micrograms/cm	> 1.7 micrograms/cm	> 1.7 micrograms/cm
O=S(=O)(C(Cl)=C(Cl)Cl)N(SC(Cl)(Cl)Cl)c1ccccc1 [Compound 7, N-phenyl-N-(trichloromethylthio)trichlorovinylsulfonamide]	> 1.7 micrograms/cm	> 1.7 micrograms/cm	> 1.5 micrograms/cm
Cc1cccc(C)c1N(SC(Cl)(Cl)Cl)S(=O)(=O)C(Cl)=C(Cl)Cl [Compound 9]	0.33 micrograms/cm	> 1.7 micrograms/cm	> 1.7 micrograms/cm
Cc1ccc(N(SC(Cl)(Cl)Cl)S(=O)(=O)C(Cl)=C(Cl)Cl)cc1 [Compound 11]	> 1.7 micrograms/cm	> 1.7 micrograms/cm	> 1.7 micrograms/cm
CNS(=O)(=O)C(Cl)=C(Cl)Cl [Compound 13]	> 1.7 micrograms/cm	> 1.7 micrograms/cm	> 1.7 micrograms/cm
CC(C)NS(=O)(=O)C(Cl)=C(Cl)Cl [Compound 14]	> 1.7 micrograms/cm	> 1.7 micrograms/cm	> 1.7 micrograms/cm
O=S(=O)(NC1CCCCC1)C(Cl)=C(Cl)Cl [Compound 15]	> 1.7 micrograms/cm	> 1.7 micrograms/cm	> 1.7 micrograms/cm
O=S(=O)(Nc1ccccc1)C(Cl)=C(Cl)Cl [Compound 16]	> 1.7 micrograms/cm	> 1.7 micrograms/cm	> 1.7 micrograms/cm
Cc1cccc(C)c1NS(=O)(=O)C(Cl)=C(Cl)Cl [Compound 17]	> 1.7 micrograms/cm	> 1.7 micrograms/cm	> 1.7 micrograms/cm
Cc1ccc(NS(=O)(=O)C(Cl)=C(Cl)Cl)cc1 [Compound 18]	> 1.7 micrograms/cm	> 1.7 micrograms/cm	> 1.7 micrograms/cm
O=S(=O)(Nc1ccc(Cl)cc1)C(Cl)=C(Cl)Cl [Compound 19, N-(p-chlorophenyl)trichlorovinylsulfonamide]	> 1.7 micrograms/cm	> 1.7 micrograms/cm	> 1.7 micrograms/cm
Cc1cc(Sc2ccccc2)ccc1NS(=O)(=O)C(Cl)=C(Cl)Cl [Compound 20]	> 1.7 micrograms/cm	> 1.7 micrograms/cm	> 1.7 micrograms/cm
O=S(=O)(Nc1ccc(Cl)c(Cl)c1)C(Cl)=C(Cl)Cl [Compound 21]	> 1.7 micrograms/cm	> 1.7 micrograms/cm	> 1.7 micrograms/cm
